Earlier results in article PMC11261124 (Poultry Science, 2024).

How the values were obtained:
HSV-2 = conditions: read-out: IC50 against HSV-2

| Structure (SMILES) | IC50 (HSV-2) [µM] | anti-HIV activity IC50 (HIV) [µg/mL] |
| --- | --- | --- |
| COc1ccc2c(c1)[nH]c1c(C)nccc12 [Harmine] | 1.47 | – |
| COc1cn2c3ccccc3c3ccnc(c1=O)c32 [Drymaritin] | – | 0.699 |
